Like-named read-outs stand apart in the source and are kept apart here.
Legend:
[1] = molecular target: T1, non-lysosomal-β-glucocerebrosidase (Homo sapiens, UniProt Q9HCG7); assay: Inhibition of non-lysosomal-β-glucocerebrosidase; format: biochemical; conditions: whole cell extracts of MCF7 as enzyme source; 4-MU β-glucoside substrate; pH 5.8
T1 construct: whole cell extracts of MCF7(a human breast carcinoma cell line) was used as the source of the enzyme; endogenous in cells; host or cells: MCF7 whole cell extract
T1 sequence (Q9HCG7 1-927): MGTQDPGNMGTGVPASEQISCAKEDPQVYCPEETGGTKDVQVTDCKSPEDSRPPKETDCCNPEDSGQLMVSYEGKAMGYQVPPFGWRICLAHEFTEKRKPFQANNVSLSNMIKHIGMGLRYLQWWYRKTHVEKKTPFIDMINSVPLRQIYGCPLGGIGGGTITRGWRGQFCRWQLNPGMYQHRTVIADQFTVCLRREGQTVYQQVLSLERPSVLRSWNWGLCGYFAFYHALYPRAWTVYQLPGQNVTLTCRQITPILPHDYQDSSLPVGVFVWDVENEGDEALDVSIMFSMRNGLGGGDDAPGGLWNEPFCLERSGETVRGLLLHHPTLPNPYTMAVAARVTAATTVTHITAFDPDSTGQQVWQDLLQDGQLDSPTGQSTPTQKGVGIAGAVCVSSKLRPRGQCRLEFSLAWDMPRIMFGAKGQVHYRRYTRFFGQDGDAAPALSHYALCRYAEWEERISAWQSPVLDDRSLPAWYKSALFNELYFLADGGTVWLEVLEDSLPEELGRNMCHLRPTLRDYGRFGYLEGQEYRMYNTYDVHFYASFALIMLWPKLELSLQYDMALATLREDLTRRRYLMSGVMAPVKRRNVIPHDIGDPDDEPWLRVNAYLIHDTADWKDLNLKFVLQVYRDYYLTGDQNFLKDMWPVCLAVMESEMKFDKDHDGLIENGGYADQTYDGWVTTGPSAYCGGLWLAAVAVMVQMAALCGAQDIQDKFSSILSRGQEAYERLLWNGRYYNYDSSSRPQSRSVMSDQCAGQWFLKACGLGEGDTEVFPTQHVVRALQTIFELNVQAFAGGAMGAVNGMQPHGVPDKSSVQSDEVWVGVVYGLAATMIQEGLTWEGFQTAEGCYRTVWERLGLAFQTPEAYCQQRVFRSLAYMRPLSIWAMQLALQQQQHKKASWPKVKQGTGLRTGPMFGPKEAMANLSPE

[2] = molecular target: T2, human recombinant GCS expressed in insect cells (Homo sapiens, UniProt Q16739); assay: Inhibition of GCS; format: biochemical
T2 construct: made in house; host or cells: insect cells
T2 sequence (Q16739 1-394): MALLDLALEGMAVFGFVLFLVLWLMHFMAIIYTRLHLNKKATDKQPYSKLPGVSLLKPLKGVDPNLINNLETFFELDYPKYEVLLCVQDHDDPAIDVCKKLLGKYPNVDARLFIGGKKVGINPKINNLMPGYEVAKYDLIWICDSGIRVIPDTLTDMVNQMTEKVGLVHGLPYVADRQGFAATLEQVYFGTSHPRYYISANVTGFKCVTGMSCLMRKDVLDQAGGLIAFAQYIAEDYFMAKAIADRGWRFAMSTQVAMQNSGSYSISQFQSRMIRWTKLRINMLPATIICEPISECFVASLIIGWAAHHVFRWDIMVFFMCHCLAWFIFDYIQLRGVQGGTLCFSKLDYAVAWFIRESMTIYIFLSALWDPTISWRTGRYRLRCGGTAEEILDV

human GCS = molecular target: T3, human GCS (Homo sapiens, UniProt Q16739); assay: Cell-based IC50 for GCS inhibition by measuring glucosylceramide (GlcCer) depletion; conditions: MCF-7 cells cultured for 5-7 days; GlcCer quantified by HPTLC; read-out: Inhibition of GCS Cellular-based (IC50 μM)
T3 construct: Human mammary epithelial cells (MCF-7) were cultured for 5-7 days, with varying concentrations of a compound of the invention; endogenous in cells; host or cells: MCF-7
T3 sequence (Q16739 1-394): T2 sequence (Q16739 1-394)

[3] = human recombinant GCS expressed in insect cells, read-out: Inhibition of GCS (IC50)

Row | Structure (SMILES) | IC50 [1] [nM] | IC50 [2, 3] [nM] | IC50 (human GCS) [µM] | IC50 [2] [nM]
1 | C[C@@H](NC(=O)c1ccc(CN2C[C@H](O)[C@@H](O)[C@H](O)[C@@H]2CO)cc1)c1ccc(F)cc1 [Example 8, Benzamide, N-[1-(R)-(4-fluorophenyl)ethyl]4-[[(2S,3R,4R,5S)-3,4,5-trihydroxy-2-(hydroxymethyl)-1-piperidinyl]methyl]-,] | 42 | 490 | – | –
2 | OC[C@H]1[C@@H](O)[C@H](O)[C@@H](O)CN1Cc1ccc(OCc2ccccc2)c(Cl)c1 [Example 10, 3,4,5-Piperidinetriol, 2-(hydroxymethyl)-1-[[3-chloro-4-(phenylmethoxy)phenyl]methyl]-, (2S,3R,4R,5S)] | 5 | 320 | – | –
3 | COc1cc(OCc2ccccc2)ccc1CN1C[C@H](O)[C@@H](O)[C@H](O)[C@@H]1CO [Example 1, 3,4,5-Piperidinetriol, 2-(hydroxymethyl)-1-[[2-methoxy-4-(phenylmethoxy)phenyl]methyl]-, (2S,3R,4R,5S)] | 110 | 2700 | – | –
4 | O=C(NCc1ccc(F)cc1)c1ccc(CN2C[C@H](O)[C@@H](O)[C@H](O)[C@@H]2CO)cc1 [Example 6, Benzamide, N-[(4-fluorophenyl)methyl]-4-[[(2S,3R,4R,5S)-3,4,5-trihydroxy-2-(hydroxymethyl)-1-piperldinyl]methyl]-,] | 69 | 670 | – | –
5 | CN(C)c1ccc(CN2C[C@H](O)[C@@H](O)[C@H](O)[C@@H]2CO)c(F)c1C#N [Example 3, 3,4,5-Piperidinetriol, 1-[(3-cyano-4-dimethylamino-2-fluorophenyl)methyl]-2-(hydroxymethyl)-, (2S,3R,4R,5S)] | 750 | 1800 | – | –
6 | CC(NC(=O)c1ccc(CN2C[C@H](O)[C@@H](O)[C@H](O)[C@@H]2CO)cc1)c1ccccc1 (stereo partly drawn) [Example 7, Benzamide, N-[1-phenylethyl]4-[[(2S,3R,4R,5S)-3,4,5-trihydroxy-2-(hydroxymethyl)-1-piperidinyl]-methyl]-,] | 84 | 280 | – | –

Further lines, results first:

Row | IC50 [1] [nM] | IC50 [2, 3] [nM] | IC50 (human GCS) [µM] | IC50 [2] [nM] | Structure (SMILES)
7 | 4 | 410 | – | – | OC[C@H]1[C@@H](O)[C@H](O)[C@@H](O)CN1Cc1ccc(Oc2ccccc2)cc1 [Example 19, 3,4,5-Piperidinetriol, 2-(hydroxymethyl)-1-[(4-phenoxyphenyl)methyl]-, (2S,3R,4R,5S)]
8 | 2 | 290 | – | – | OC[C@H]1[C@@H](O)[C@H](O)[C@@H](O)CN1Cc1ccc(/C=C/c2ccccc2)cc1 [Example 13, 3,4,5-Piperidinetriol, 1-[(4-trans-styrylphenyl)methyl]-2-(hydroxymethyl)-, (2S,3R,4R,5S)]
9 | 19 | 1400 | – | – | O=C(c1ccc(CN2C[C@H](O)[C@@H](O)[C@H](O)[C@@H]2CO)cc1)N1CCCc2ccccc21 [Example 14]
10 | 3 | 210 | < 0.01 | – | OC[C@H]1[C@@H](O)[C@H](O)[C@@H](O)CN1Cc1ccc(OCc2ccccc2)cc1 [Example 11, 3,4,5-Piperidinetriol, 2-(hydroxymethyl)-1-[[4-(phenylmethoxy)phenyl]methyl]-, (2S,3R,4R,5S)]
11 | 910 | – | – | 910 | O=S(=O)(Nc1ccc(CN2C[C@H](O)[C@@H](O)[C@H](O)[C@@H]2CO)cc1)c1ccccc1 [Example 22, Benzenesulfonamide, N-[4-[[(2S,3S,4R,5S)-3,4,5-trihydroxy-2-(hydroxymethyl)-1-piperidinyl]methyl]-phenyl]-,]
12 | 120 | 550 | – | – | CCN(CC)c1ccc(CN2C[C@H](O)[C@@H](O)[C@H](O)[C@@H]2CO)c(F)c1C#N [Example 18, 3,4,5-Piperidinetriol, 2-(hydroxymethyl)-1-[(3-cyano-4-(diethylamino)-2-fluorophenyl)-methyl]-, (2S,3R,4R,5S)]
13 | 55 | 2500 | – | – | OC[C@H]1[C@@H](O)[C@H](O)[C@@H](O)CN1Cc1ccc2c(c1)OCCO2 [Example 20, 3,4,5-Piperidinetriol, 1-[(3,4-ethylenedioxyphenyl)methyl]-2-(hydroxymethyl)-, (2S,3R,4R,5S)]
